IC50 data for 23 compounds are collected here from US12441703B2, “Carboxamides as modulators of sodium channels” (VERTEX PHARMACEUTICALS INCORPORATED, priority 2019, dated 2025).

This assay addresses human NaV 1.8 (Homo sapiens, UniProt Q9Y5Y9). In words: E-VIPR assay for detecting and measuring NaV inhibition properties. The format is cell-based. To be noted: E-VIPR assay conducted in the presence of human serum; HEK cells expressing truncated human NaV 1.8; read-out: IC50. Summed up:
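Membrane-potential (coumarin/oxonol) readout after 10 s of 10 Hz biphasic electrical stimulation on E-VIPR. Compounds: 11-point 3-fold dilutions, […], 0.625% DMSO, 30 min at room temperature, human serum optional. Cells: HEK expressing truncated human NaV1.8 co-transduced with KIR2.1.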

Sequence of human NaV 1.8 (Q9Y5Y9 whole entry, looked up, the tested form may be a part): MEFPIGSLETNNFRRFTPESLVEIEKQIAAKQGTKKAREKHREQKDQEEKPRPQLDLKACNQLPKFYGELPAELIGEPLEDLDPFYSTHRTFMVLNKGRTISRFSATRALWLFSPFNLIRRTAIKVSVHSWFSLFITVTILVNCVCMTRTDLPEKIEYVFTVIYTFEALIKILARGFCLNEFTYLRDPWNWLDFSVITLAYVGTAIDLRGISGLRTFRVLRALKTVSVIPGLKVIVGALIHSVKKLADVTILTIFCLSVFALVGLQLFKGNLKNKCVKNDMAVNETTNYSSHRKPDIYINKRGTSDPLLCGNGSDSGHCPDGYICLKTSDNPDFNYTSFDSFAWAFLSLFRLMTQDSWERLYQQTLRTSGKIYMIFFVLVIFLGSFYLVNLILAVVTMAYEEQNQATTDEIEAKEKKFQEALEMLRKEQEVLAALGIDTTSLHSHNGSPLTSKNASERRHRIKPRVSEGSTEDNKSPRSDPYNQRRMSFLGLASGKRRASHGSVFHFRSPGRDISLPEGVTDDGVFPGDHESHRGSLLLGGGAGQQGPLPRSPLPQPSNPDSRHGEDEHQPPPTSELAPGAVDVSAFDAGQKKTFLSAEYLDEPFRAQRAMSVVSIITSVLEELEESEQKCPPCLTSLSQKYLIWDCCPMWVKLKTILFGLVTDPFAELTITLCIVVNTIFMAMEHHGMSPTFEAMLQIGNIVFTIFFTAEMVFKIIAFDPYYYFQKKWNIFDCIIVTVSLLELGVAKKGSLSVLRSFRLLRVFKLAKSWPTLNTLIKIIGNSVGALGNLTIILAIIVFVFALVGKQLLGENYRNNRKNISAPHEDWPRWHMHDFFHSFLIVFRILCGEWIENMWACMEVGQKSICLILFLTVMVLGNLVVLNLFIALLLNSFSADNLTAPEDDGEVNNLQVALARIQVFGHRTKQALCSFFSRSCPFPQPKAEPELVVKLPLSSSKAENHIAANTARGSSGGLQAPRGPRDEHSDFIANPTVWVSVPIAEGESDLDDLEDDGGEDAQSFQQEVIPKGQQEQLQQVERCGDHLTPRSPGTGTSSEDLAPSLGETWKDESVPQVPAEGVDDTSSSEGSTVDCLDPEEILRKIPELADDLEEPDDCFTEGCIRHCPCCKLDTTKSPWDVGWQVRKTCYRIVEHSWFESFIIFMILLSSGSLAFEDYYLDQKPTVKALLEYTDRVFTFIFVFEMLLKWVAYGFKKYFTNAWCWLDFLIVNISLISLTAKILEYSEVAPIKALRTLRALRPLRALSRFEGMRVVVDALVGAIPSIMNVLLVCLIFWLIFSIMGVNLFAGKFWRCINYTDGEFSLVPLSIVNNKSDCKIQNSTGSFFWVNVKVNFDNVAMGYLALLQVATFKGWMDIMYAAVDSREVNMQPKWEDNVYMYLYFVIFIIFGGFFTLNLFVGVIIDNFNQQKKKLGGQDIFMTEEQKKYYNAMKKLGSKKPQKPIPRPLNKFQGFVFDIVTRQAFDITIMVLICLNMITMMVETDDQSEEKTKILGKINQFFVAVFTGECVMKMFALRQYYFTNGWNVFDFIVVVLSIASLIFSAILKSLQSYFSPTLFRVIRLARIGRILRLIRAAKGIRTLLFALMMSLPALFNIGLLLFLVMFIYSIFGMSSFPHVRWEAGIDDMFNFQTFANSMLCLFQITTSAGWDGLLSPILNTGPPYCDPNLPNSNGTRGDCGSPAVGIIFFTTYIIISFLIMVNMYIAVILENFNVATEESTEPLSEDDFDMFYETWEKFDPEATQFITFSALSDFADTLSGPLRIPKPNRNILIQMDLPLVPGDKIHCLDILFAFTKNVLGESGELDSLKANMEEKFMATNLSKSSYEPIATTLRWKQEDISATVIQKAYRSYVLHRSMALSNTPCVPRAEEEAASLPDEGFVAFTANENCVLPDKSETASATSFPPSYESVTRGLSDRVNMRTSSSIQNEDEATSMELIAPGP

For `NC(=O)c1cc(NC(=O)c2cc(C(F)(F)F)ccc2Oc2ccc(F)cc2Cl)ccn1` [Compound 5, 4-[[2-(2-chloro-4-fluoro-phenoxy)-5-(trifluoromethyl)benzoyl]amino]pyridine-2-carboxamide], the IC50 stood at 1200 nM.
Then `COc1cc(OC(F)(F)F)ccc1Oc1cc(C(C)(C)C)cnc1C(=O)Nc1ccnc(C(N)=O)c1` [Compound 238, 5-tert-butyl-N-(2-carbamoyl-4-pyridyl)-3-[2-methoxy-4-(trifluoromethoxy)phenoxy]pyridine-2-carboxamide], with 695 nM; and `NC(=O)c1cc(NC(=O)c2c(Oc3ccc(F)cc3F)cccc2C(F)(F)F)ccn1` [Compound 77, 4-[[2-(2,4-difluorophenoxy)-6-(trifluoromethyl)benzoyl]amino]pyridine-2-carboxamide], with greater than 3000 nM.
`Cc1c(C(F)(F)F)ccc(Oc2ccc(OC(F)(F)F)cc2C2CC2)c1C(=O)Nc1ccc(C(N)=O)nc1` [Compound 226, 5-[[6-[2-cyclopropyl-4-(trifluoromethoxy)phenoxy]-2-methyl-3-(trifluoromethyl)benzoyl]amino]pyridine-2-carboxamide]: the IC50 worked out at 140 nM.
Then `COc1c(Oc2cc(C(F)(F)F)cc(F)c2C(=O)Nc2cc(C(N)=O)ncc2C)ccc(OC(F)(F)F)c1F` [Compound 318, 4-[[2-fluoro-6-[3-fluoro-2-methoxy-4-(trifluoromethoxy)phenoxy]-4-(trifluoromethyl)benzoyl]amino]-5-methyl-pyridine-2-carboxamide], with 15.1 nM; and `COc1c(Oc2ccc(C(F)(F)F)c(OC)c2C(=O)Nc2ccnc(C(N)=O)c2)ccc(F)c1F` [Compound 58, 4-[[6-(3,4-difluoro-2-methoxy-phenoxy)-2-methoxy-3-(trifluoromethyl)benzoyl]amino]pyridine-2-carboxamide], with 150 nM; and `COc1cc(OC(F)(F)F)ccc1Oc1cc(OC(F)(F)F)cc(C)c1C(=O)Nc1ccnc(C(N)=O)c1` [Compound 242, 4-[[2-[2-methoxy-4-(trifluoromethoxy)phenoxy]-6-methyl-4-(trifluoromethoxy)benzoyl]amino]pyridine-2-carboxamide], with 13 nM.
As for `NC(=O)c1cc(NC(=O)c2c(Oc3ccc(F)c(F)c3Cl)ccc(C(F)(F)F)c2F)ccn1` [Compound 339, 4-[[6-(2-chloro-3,4-difluoro-phenoxy)-2-fluoro-3-(trifluoromethyl)benzoyl]amino]pyridine-2-carboxamide], the IC50 was 27 nM.
Then `Cc1c(C(F)(F)F)ccc(Oc2ccc(OC(F)(F)F)c(F)c2)c1C(=O)Nc1ccnc(C(N)=O)c1` [Compound 139, 4-[[6-[3-fluoro-4-(trifluoromethoxy)phenoxy]-2-methyl-3-(trifluoromethyl)benzoyl]amino]pyridine-2-carboxamide], with 33 nM; and `COc1c(Oc2ccc(Cl)c(F)c2C(=O)Nc2ccc(C(N)=O)nc2)ccc(OC(F)(F)F)c1F` [Compound 306, 5-[[3-chloro-2-fluoro-6-[3-fluoro-2-methoxy-4-(trifluoromethoxy)phenoxy]benzoyl]amino]pyridine-2-carboxamide], with 19 nM; and `CCOc1ccc(Oc2ccc(C(F)(F)F)c(F)c2C(=O)Nc2ccnc(C(N)=O)c2)cc1Cl` [Compound 38, 4-[[6-(3-chloro-4-ethoxy-phenoxy)-2-fluoro-3-(trifluoromethyl)benzoyl]amino]pyridine-2-carboxamide], with 43 nM.
Regarding `CC(C)Oc1ccc(Oc2ccc(C(F)(F)F)cc2C(=O)Nc2ccnc(C(N)=O)c2)cc1` [Compound 9, 4-[[2-(4-isopropoxyphenoxy)-5-(trifluoromethyl)benzoyl]amino]pyridine-2-carboxamide], the half-inhibitory concentration (IC50) amounted to 1300 nM.
Then `Cc1c(C2CC2)ccc(Oc2ccc(OC(F)(F)F)cc2Cl)c1C(=O)Nc1ccc(C(N)=O)nc1` [Compound 287, 5-[[6-[2-Chloro-4-(Trifluoromethoxy)Phenoxy]-3-Cyclopropyl-2-Methyl-Benzoyl]Amino]Pyridine-2-Carboxamide], with 590 nM; and `COc1c(Oc2ccc(C(F)(F)F)c(F)c2C(=O)Nc2ccc(C(N)=O)nc2)ccc(F)c1F` [Compound 118, 5-[[6-(3,4-difluoro-2-methoxy-phenoxy)-2-fluoro-3-(trifluoromethyl)benzoyl]amino]pyridine-2-carboxamide], with 695 nM.
Then `COc1c(Oc2cc(F)c(F)c(F)c2C(=O)Nc2ccnc(C(N)=O)c2)ccc(OC(F)(F)F)c1F` [Compound 307, 4-[[2,3,4-trifluoro-6-[3-fluoro-2-methoxy-4-(trifluoromethoxy)phenoxy]benzoyl]amino]pyridine-2-carboxamide], with 5.9 nM.
In the case of `NC(=O)c1cc(NC(=O)c2ccc(C(F)(F)F)cc2Oc2ccc(F)cc2F)ccn1` [Compound 111, 4-[[2-(2,4-difluorophenoxy)-4-(trifluoromethyl)benzoyl]amino]pyridine-2-carboxamide], the concentration for half-maximal inhibition (IC50) was greater than 3000 nM.
In the case of `Cc1c(Oc2ccc(OC(F)(F)F)c(F)c2C(=O)Nc2ccnc(C(N)=O)c2)ccc(OC(F)(F)F)c1F` [Compound 294, 4-[[2-Fluoro-6-[3-Fluoro-2-Methyl-4-(Trifluoromethoxy)Phenoxy]-3-(Trifluoromethoxy)Benzoyl]Amino]Pyridine-2-Carboxamide], the concentration for half-maximal inhibition (IC50) was 6.8 nM.
Then `CCc1c(C(F)(F)F)ccc(Oc2ccc(OC(F)(F)F)cc2OC)c1C(=O)Nc1ccnc(C(N)=O)c1` [Compound 183, 4-[[2-ethyl-6-[2-methoxy-4-(trifluoromethoxy)phenoxy]-3-(trifluoromethyl)benzoyl]amino]pyridine-2-carboxamide], with 14 nM; and `COc1cc(OC(F)(F)F)ccc1Oc1cc(C2CC2)c(C2CC2)nc1C(=O)Nc1ccc(C(N)=O)nc1` [Compound 205, N-(6-carbamoyl-3-pyridyl)-5,6-dicyclopropyl-3-[2-methoxy-4-(trifluoromethoxy)phenoxy]pyridine-2-carboxamide], with 1100 nM.
Then `CCOc1cc(OC(F)(F)F)ccc1Oc1cc(OC)c(C(F)(F)F)c(F)c1C(=O)Nc1ccnc(C(N)=O)c1` [Compound 347, 4-[[6-[2-ethoxy-4-(trifluoromethoxy)phenoxy]-2-fluoro-4-methoxy-3-(trifluoromethyl)benzoyl]amino]pyridine-2-carboxamide], with 3.1 nM; and `COc1cc(OC(F)(F)F)ccc1Oc1cc(-c2ccc(Cl)cc2)ccc1C(=O)Nc1ccnc(C(N)=O)c1` [Compound 155, 4-[[4-(4-chlorophenyl)-2-[2-methoxy-4-(trifluoromethoxy)phenoxy]benzoyl]amino]pyridine-2-carboxamide], with 505 nM; and `COc1c(Oc2ccc(OC3CC3)c(F)c2C(=O)Nc2ccnc(C(N)=O)c2)ccc(F)c1F` [Compound 374, 4-[[3-(cyclopropoxy)-6-(3,4-difluoro-2-methoxy-phenoxy)-2-fluoro-benzoyl]amino]pyridine-2-carboxamide], with 34 nM.
Then `COc1cc(OC(F)(F)F)ccc1Oc1cc(C(F)(F)F)cc(C)c1C(=O)Nc1cc(C(N)=O)ncc1C` [Compound 186, 4-[[2-[2-methoxy-4-(trifluoromethoxy)phenoxy]-6-methyl-4-(trifluoromethyl)benzoyl]amino]-5-methyl-pyridine-2-carboxamide], with 110 nM.

As usually defined, the IC50 is the point on the concentration scale where inhibition reaches its midpoint.
